{"source": "patent US5980933A", "about": "“Transdermal formulation of xanomeline” (Eli Liily and Company, priority 1997, dated 1999)", "key": {"[1]": {"test_system": "muscarinic receptors in the brain", "experiment": "Ex vivo 3H-pirenzepine binding in rat brain after patch application", "conditions": "after oral administration", "description": "The patches prepared as stated herein were applied to rats. The rats were killed in pairs at various time points after application and the rat brains were removed and frozen. The binding of the M1 antagonist ligand, ^3 H-pirenzepine, to muscarinic receptors in the brain was determined. The decrease in binding is indicative of drug or active metabolite present in the brain. The effect of the drug after oral administration lasts less than 6 hours. The percent of control ex vivo pirenzepine binding at 6 hours was 33%, at 12 hours 15%, at 24 hours 26%, and at 48 hours 53%. The mean plasma concentration using this patch formulation was as follows: […]\nThe patches prepared as stated herein were applied to rats. The rats were killed in pairs at various time points after application and the rat brains were removed and frozen. The binding of the M1 antagonist ligand, ^3 H-pirenzepine, to muscarinic receptors in the brain was determined. The decrease in binding is indicative of drug or active metabolite present in the brain. The effect of the drug after oral administration lasts less than 6 hours. The percent of control ex vivo pirenzepine binding at 6 hours was 101%, at 12 hours 89%, at 24 hours 75%, and at 48 hours 105%."}, "[2]": {"experiment": "Saturation limit of xanomeline in acrylic adhesive", "type": "physicochemical", "text": "The values had been derived from clear solutions of the drug in the adhesive. Unfortunately, the saturation limit of about 23-28% (w/w) in this polymer limits the utilization of this unexpected advantage of highly enriched xanomeline preparations. It is concluded from this unexpected results that an optimum formulation has to contain a slightly subsaturated, saturated or even supersaturated amount of xanomeline for best performance."}}}
{"smiles": "CCCCCCOc1nsnc1C1=CCCN(C)C1", "note": "[xanomeline, 3-[4-(hexyloxy)-1,2,5-thiadiazol-3-yl]-1,2,5,6-tetrahydro-1-methylpyridine]", "values": [{"measurement": "duration of the effect of the drug", "setting": "[1]", "value": "less than 6 hours"}, {"measurement": "saturation limit in this polymer", "setting": "[2]", "value": "23-28 % (w/w)"}]}
